Experiment [1] has as its target HDAC1 (Homo sapiens (Human), UniProt Q13547). Kind of experiment: HDAC enzyme activity inhibition (in vitro), HDAC1 Fluorimetric Drug Discovery Assay Kit. The class given is biochemical. Conditions: samples at 100, 1000 and 10000 nM; 37° C. 60 minutes; fluorescence Ex 390, Em 460.
Experiment [2] addresses HDAC6 human recombinant (Homo sapiens (Human), UniProt Q9UBN7). In words: HDAC enzyme activity inhibition (in vitro), HDAC6 assay. The class given is biochemical. Conditions: samples at 0.1, 1, 10, 100 and 1000 nM; 37° C. 60 minutes; fluorescence Ex 390, Em 460.

Chain of HDAC1 (Q13547 whole entry): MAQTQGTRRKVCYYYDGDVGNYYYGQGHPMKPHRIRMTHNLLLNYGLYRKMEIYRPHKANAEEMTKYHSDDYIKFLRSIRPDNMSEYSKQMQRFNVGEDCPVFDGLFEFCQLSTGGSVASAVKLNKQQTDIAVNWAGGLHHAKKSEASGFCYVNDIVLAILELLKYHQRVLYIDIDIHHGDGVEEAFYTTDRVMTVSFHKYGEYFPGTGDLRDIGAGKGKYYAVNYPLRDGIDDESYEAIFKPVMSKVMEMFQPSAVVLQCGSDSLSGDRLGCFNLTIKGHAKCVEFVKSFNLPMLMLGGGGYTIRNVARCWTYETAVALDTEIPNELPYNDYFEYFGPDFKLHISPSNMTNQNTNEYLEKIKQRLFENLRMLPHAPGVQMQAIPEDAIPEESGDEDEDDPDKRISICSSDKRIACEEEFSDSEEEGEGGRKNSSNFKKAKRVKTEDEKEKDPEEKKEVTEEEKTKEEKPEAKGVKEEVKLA
Chain of HDAC6 human recombinant (Q9UBN7 whole entry): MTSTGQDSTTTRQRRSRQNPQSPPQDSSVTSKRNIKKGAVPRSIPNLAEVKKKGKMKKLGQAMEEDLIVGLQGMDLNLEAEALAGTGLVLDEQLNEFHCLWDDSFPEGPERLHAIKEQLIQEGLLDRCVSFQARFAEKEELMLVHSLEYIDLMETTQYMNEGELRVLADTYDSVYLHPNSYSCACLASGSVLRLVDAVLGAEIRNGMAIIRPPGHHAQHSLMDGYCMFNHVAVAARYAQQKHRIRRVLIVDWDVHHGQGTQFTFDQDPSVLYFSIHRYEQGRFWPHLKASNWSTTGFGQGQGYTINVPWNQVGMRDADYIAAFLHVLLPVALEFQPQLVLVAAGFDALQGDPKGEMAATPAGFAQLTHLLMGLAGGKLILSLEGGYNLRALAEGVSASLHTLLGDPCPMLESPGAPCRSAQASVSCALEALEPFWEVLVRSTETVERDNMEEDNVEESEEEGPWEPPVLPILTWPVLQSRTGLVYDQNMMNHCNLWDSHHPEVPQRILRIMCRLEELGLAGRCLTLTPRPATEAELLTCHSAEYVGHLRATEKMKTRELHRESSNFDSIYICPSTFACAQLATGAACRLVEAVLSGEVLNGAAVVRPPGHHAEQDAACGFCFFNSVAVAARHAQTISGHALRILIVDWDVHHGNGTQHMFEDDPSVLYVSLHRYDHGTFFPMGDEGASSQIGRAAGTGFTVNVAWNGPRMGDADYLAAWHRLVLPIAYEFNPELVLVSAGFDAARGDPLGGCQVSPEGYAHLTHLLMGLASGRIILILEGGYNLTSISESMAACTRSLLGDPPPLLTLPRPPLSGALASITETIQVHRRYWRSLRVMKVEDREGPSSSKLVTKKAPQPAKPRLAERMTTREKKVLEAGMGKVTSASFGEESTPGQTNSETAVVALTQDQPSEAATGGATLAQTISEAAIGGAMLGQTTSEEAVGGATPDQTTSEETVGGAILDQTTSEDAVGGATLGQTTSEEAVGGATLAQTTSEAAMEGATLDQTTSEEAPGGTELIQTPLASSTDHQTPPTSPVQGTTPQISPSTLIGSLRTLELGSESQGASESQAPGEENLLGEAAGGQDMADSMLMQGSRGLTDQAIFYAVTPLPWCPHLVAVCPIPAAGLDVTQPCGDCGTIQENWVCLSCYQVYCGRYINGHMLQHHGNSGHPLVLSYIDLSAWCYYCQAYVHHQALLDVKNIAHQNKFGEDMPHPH

For `CC1(C)C(=O)N(Cc2ccc(-c3nnc(C(F)F)o3)cn2)C(=O)c2cc(C3CCN(CC(F)(F)F)CC3)ccc21` [Compound 135, 2-((5-(5-(difluoromethyl)-1,3,4-oxadiazole-2-yl)pyridine-2-yl)methyl)-4,4-dimethyl-7-(1-(2,2,2-trifluoroethyl)piperidine-4-yl)isoquinoline-1,3(2H,4H)-dione], the IC50 was above 10000 nM in experiment [1] and 100 nM in experiment [2].

For the compound `CCN1CCN(c2ccc3c(c2)C2(CCC2)C(=O)N(Cc2ccc(-c4nnc(C(F)F)o4)cn2)C3=O)CC1` [Compound 117, 2′-((5-(5-(difluoromethyl)-1,3,4-oxadiazole-2-yl)pyridine-2-yl)methyl)-6′-(4-ethylpiperazine-1-yl)-1′H-spiro[cyclobutane-1,4′-isoquinoline]-1′,3′(2′H)-dione], the IC50 in experiment [1] was above 10000 nM; in experiment [2], 22 nM.

As for `CC(C)CN1CCN(c2ccc3c(c2)C(C)(C)C(=O)N(Cc2ccc(-c4nnc(C(F)F)o4)cn2)C3=O)CC1` [Compound 149, 2-((5-(5-(difluoromethyl)-1,3,4-oxadiazole-2-yl)pyridine-2-yl)methyl)-6-(4-isobutylpiperazine-1-yl)-4,4-dimethylisoquinoline-1,3(2H,4H)-dione], the IC50 in experiment [1] was above 10000 nM; in experiment [2], 95 nM.

`CC1(C)C(=O)N(Cc2ccc(-c3nnc(C(F)F)o3)cn2)C(=O)c2cc(C3=CCSCC3)ccc21` [Compound 121, 2-((5-(5-(difluoromethyl)-1,3,4-oxadiazole-2-yl)pyridine-2-yl)methyl)-7-(3,6-dihydro-2H-thiopyran-4-yl)-4,4-dimethylisoquinoline-1,3(2H,4H)-dione]: the IC50 was above 10000 nM in experiment [1] and 36 nM in experiment [2].

As for `Cc1noc(C)c1-c1cccc2c1C(=O)N(Cc1ccc(-c3nnc(C(F)F)o3)cn1)C(=O)C2(C)C` [Compound 96, 2-((5-(5-(difluoromethyl)-1,3,4-oxadiazole-2-yl)pyridine-2-yl)methyl)-8-(3,5-dimethylisooxazole-4-yl)-4,4-dimethylisoquinoline-1,3(2H,4H)-dione], the figures for the IC50 in experiment [1] and in experiment [2] were above 10000 nM and 88 nM, respectively.

Regarding `CC1(C)C(=O)N(Cc2ccc(-c3nnc(C(F)F)o3)cn2)C(=O)c2ccc(C3CCN(C4CC5(COC5)C4)CC3)cc21` [Compound 63, 6-(1-(2-oxaspiro[3.3]heptane-6-yl)piperidine-4-yl)-2-((5-(5-(difluoromethyl)-1,3,4-oxadiazole-2-yl)pyridine-2-yl)methyl)-4,4-dimethylisoquinoline-1,3(2H,4H)-dione], the IC50 in experiment [1] was above 10000 nM; in experiment [2] it was 33 nM.

Take `O=c1c2ccccc2n(CCn2cccn2)c(=O)n1Cc1ccc(-c2nnc(C(F)F)o2)cn1` [Compound 21, 1-(2-(1H-pyrazole-1-yl)ethyl)-3-((5-(5-(difluoromethyl)-1,3,4-oxadiazole-2-yl)pyridine-2-yl)methyl)quinazoline-2,4(1H,3H)-dione]: the IC50 is above 10000 nM in experiment [1] and 273 nM in experiment [2].

For the compound `CCC1(CC)C(=O)N(Cc2ccc(-c3nnc(C(F)F)o3)cn2)C(=O)c2ccc(N3CCN(C(C)=O)CC3)cc21` [Compound 136, 6-(4-acetylpiperazine-1-yl)-2-((5-(5-(difluoromethyl)-1,3,4-oxadiazole-2-yl)pyridine-2-yl)methyl)-4,4-diethylisoquinoline-1,3(2H,4H)-dione], the IC50 in experiment [1] was above 10000 nM; in experiment [2], 55 nM.

For `CC1(C)C(=O)N(Cc2ccc(-c3nnc(C(F)F)o3)cn2)C(=O)c2cc(C3=CCS(=O)(=NC(=O)C(F)(F)F)CC3)ccc21` (stereo not shown) [Compound 125, N-(4-(2-((5-(5-(difluoromethyl)-1,3,4-oxadiazole-2-yl)pyridine-2-yl)methyl)-4,4-dimethyl-1,3-dioxo-1,2,3,4-tetrahydroisoquinoline-7-yl)-1-oxydo-3,6-dihydro-2H-1λ^6-thiopyran-1-ylidene)-2,2,2-trifluoroacetamide], the IC50 is above 10000 nM in experiment [1] and 43 nM in experiment [2].

With `CC1(C)C(=O)N(Cc2ccc(-c3nnc(C(F)F)o3)cn2)C(=O)c2ccc(N3CCN(CC(F)(F)C(F)(F)C(F)(F)F)CC3)cc21` [Compound 140, 2-((5-(5-(difluoromethyl)-1,3,4-oxadiazole-2-yl)pyridine-2-yl)methyl)-6-(4-(2,2,3,3,4,4,4-heptafluorobutyl)piperazine-1-yl)-4,4-dimethylisoquinoline-1,3(2H,4H)-dione], the results for the IC50 in experiment [1] and in experiment [2] were above 10000 nM and 535 nM, respectively.

With `CCCN1CCC(c2ccc3c(c2)C(=O)N(Cc2ccc(-c4nnc(C(F)F)o4)cn2)C(=O)C3(C)C)CC1` [Compound 143, 2-((5-(5-(difluoromethyl)-1,3,4-oxadiazole-2-yl)pyridine-2-yl)methyl)-4,4-dimethyl-7-(1-propylpiperidine-4-yl) isoquinoline-1,3 (2H,4H)-dione], the IC50 in experiment [1] is above 10000 nM; in experiment [2] it was 21 nM.

With `O=c1c2ccccc2n(Cc2ccc(-c3nnc(C(F)F)o3)cn2)c(=O)n1CCc1ccccc1` [Compound 77, 1-((5-(5-(difluoromethyl)-1,3,4-oxadiazole-2-yl)pyridine-2-yl)methyl)-3-phenethylquinazoline-2,4(1H,3H)-dione], the IC50 in experiment [1] is above 10000 nM; in experiment [2], 141 nM.

As to `CC1(C)C(=O)N(Cc2ccc(-c3nnc(C(F)F)o3)cn2)C(=O)c2ccc(-c3ccccc3F)cc21` [Compound 103, 2-((5-(5-(difluoromethyl)-1,3,4-oxadiazole-2-yl)pyridine-2-yl)methyl)-6-(2-fluorophenyl)-4,4-dimethylisoquinoline-1,3(2H,4H)-dione], the IC50 was above 10000 nM in experiment [1] and 59 nM in experiment [2].

As for `CCN1CCN(c2ccc3c(c2)C(C)(C)C(=O)N(Cc2ccc(-c4nnc(C(F)F)o4)cn2)C3=O)CC1` [Compound 39, 2-((5-(5-(difluoromethyl)-1,3,4-oxadiazole-2-yl)pyridine-2-yl)methyl)-6-(4-ethylpiperazine-1-yl)-4,4-dimethylisoquinoline-1,3(2H,4H)-dione], the IC50 in experiment [1] is above 10000 nM; in experiment [2] it was 18 nM.

As to `CC1(C)C(=O)N(Cc2ccc(-c3nnc(C(F)F)o3)cn2)C(=O)c2ccc(N3C[C@@H]4C[C@H]3CN4S(C)(=O)=O)cc21` [Compound 58, 2-((5-(5-(difluoromethyl)-1,3,4-oxadiazole-2-yl)pyridine-2-yl)methyl)-4,4-dimethyl-6-((1S,4S)-5-(methylsulfonyl)-2,5-diazabicyclo[2.2.1]heptane-2-yl)isoquinoline-1,3(2H,4H)-dione], the IC50 in experiment [1] was above 10000 nM; in experiment [2], 14 nM.

As for `O=c1[nH]c2ccccc2c(=O)n1Cc1ccc(-c2nnc(C(F)F)o2)cn1` [Compound 14, 3-((5-(5-(difluoromethyl)-1,3,4-oxadiazole-2-yl)pyridine-2-yl)methyl)quinazoline-2,4(1H,3H)-dione], the values for the IC50 in experiment [1] and in experiment [2] were above 10000 nM and 53 nM, respectively.

Regarding `CN1CCN(c2ccc3c(c2)C(=O)N(Cc2ccc(-c4nnc(C(F)F)o4)cn2)C(=O)C3(C)C)CC1` [Compound 118, 2-((5-(5-(difluoromethyl)-1,3,4-oxadiazole-2-yl)pyridine-2-yl)methyl)-4,4-dimethyl-7-(4-methylpiperazine-1-yl)isoquinoline-1,3(2H,4H)-dione], the IC50 in experiment [1] is above 10000 nM; in experiment [2] it was 22 nM.

For `CCN1CCC(c2ccc3c(c2)C(=O)N(Cc2ccc(-c4nnc(C(F)F)o4)cn2)C(=O)C3(C)C)CC1` [Compound 68, 2-((5-(5-(difluoromethyl)-1,3,4-oxadiazole-2-yl)pyridine-2-yl)methyl)-7-(1-ethylpiperidine-4-yl)-4,4-dimethylisoquinoline-1,3(2H,4H)-dione], the IC50 in experiment [1] was above 10000 nM; in experiment [2] it was 20 nM.

Turning to `CC1(C)C(=O)N(Cc2ccc(-c3nnc(C(F)F)o3)cn2)C(=O)c2ccc(Br)cc21` [Compound 23, 6-bromo-2-((5-(5-(difluoromethyl)-1,3,4-oxadiazole-2-yl)pyridine-2-yl)methyl)-4,4-dimethylisoquinoline-1,3(2H,4H)-dione], the IC50 in experiment [1] was above 10000 nM; in experiment [2] it was 65 nM.

Consider `Cn1c(=O)n(Cc2ccc(-c3nnc(C(F)F)o3)cn2)c(=O)c2cc(-c3ccccc3F)ccc21` [Compound 89, 3-((5-(5-(difluoromethyl)-1,3,4-oxadiazole-2-yl)pyridine-2-yl)methyl)-6-(2-fluorophenyl)-1-methylquinazoline-2,4(1H,3H)-dione], for which the IC50 in experiment [1] was above 10000 nM; in experiment [2] it was 54 nM.

Consider `CC(C)N1CCC(c2ccc3c(c2)C(C)(C)C(=O)N(Cc2ccc(-c4nnc(C(F)F)o4)cn2)C3=O)CC1` [Compound 60, 2-((5-(5-(difluoromethyl)-1,3,4-oxadiazole-2-yl)pyridine-2-yl)methyl)-6-(1-isopropylpiperidine-4-yl)-4,4-dimethylisoquinoline-1,3(2H,4H)-dione], for which the IC50 in experiment [1] is above 10000 nM; in experiment [2], 22 nM.

In the case of `CC1(C)C(=O)N(Cc2ccc(-c3nnc(C(F)F)o3)cn2)C(=O)c2cc(C3CCN(C4CCOC4)CC3)ccc21` (stereo not shown) [Compound 146, 2-((5-(5-(difluoromethyl)-1,3,4-oxadiazole-2-yl)pyridine-2-yl)methyl)-4,4-dimethyl-7-(1-(tetrahydrofuran-3-yl)piperidine-4-yl)isoquinoline-1,3(2H,4H)-dione], the IC50 is above 10000 nM in experiment [1] and 58 nM in experiment [2].

Regarding `CN1CC=C(c2ccc3c(c2)C(C)(C)C(=O)N(Cc2ccc(-c4nnc(C(F)F)o4)cn2)C3=O)CC1` [Compound 42, 2-((5-(5-(difluoromethyl)-1,3,4-oxadiazole-2-yl)pyridine-2-yl)methyl)-4,4-dimethyl-6-(1-methyl-1,2,3,6-tetrahydropyridine-4-yl)isoquinoline-1,3(2H,4H)-dione], the results for the IC50 in experiment [1] and in experiment [2] were above 10000 nM and 35 nM, respectively.

Source of the values: patent publication US12440484B2, “1,3,4-oxadiazole homophthalimide derivative compounds as histone deacetylase 6 inhibitor, and the pharmaceutical composition comprising the same” (Chong Kun Dang Pharmaceutical Corp., priority 2019, dated 2025).
